The subject of this assay is Carcinus maenas Hiat1 (CmHiat1). Particulars: 0.5-20 mM NH4Cl in OR2 bath; room temperature; net flux of whole oocyte, not sham-subtracted (endogenous NH4+ uptake present).

The text below walks through data of PMC10023664, “Hiat1 as a new transporter involved in ammonia regulation” (Scientific Reports, 2023).

A word on the Km: it is the substrate concentration at which the rate is half of its maximum. Take `N` [NH4^+]: the Km was 2300 µM.
